Experimental data taken from PubChem BioAssay AID586 (The Scripps Research Institute Molecular Screening Center, 2007).
Calls of active or inactive are those of the source. No rule for the calls is given here.

tested on: antigen receptor-induced NF-kappaB activation reporter, cells; assay: inhibitors of antigen receptor-triggered NF-kB signaling, dose response, cell-based (AID 586)

Row | Compound | IC50
1 | c1ccc(-c2cccc(-c3ccccn3)n2)nc1 | 1090 nM
2 | O=C(CSc1nnnn1C1CC2CCC1C2)Nc1ccnc2ccccc12 (stereo not given) | > 30000 nM (inactive)
3 | COc1ccccc1-c1nnc2sc(-c3ccc(N(C)C)cc3)nn12 | > 9970 nM (inactive)
4 | COc1ccc(-n2ncc3c(N4CCCCC4)ncnc32)cc1 | 2660 nM
5 | O=C(Nc1ccc(N2CCOCC2)cc1)c1cnsn1 | 4220 nM
6 | CCN1C(=O)c2cccc3c(S(=O)(=O)Nc4ccccn4)ccc1c23 | 2940 nM
7 | CC1CCCN(c2ncnc3c2cnn3-c2ccc(Cl)cc2)C1 (stereo not given) | 73 nM
8 | CCOc1ccccc1NC(=O)c1cccc(NC(=O)c2ccco2)c1 | > 30000 nM (inactive)
9 | N#CC1=C2SCC(O)(c3ccccc3)N2C(=O)CC1c1cccs1 (stereo not given) | 5020 nM
10 | COc1ccc(-c2noc(CCCC(=O)O)n2)cc1 | > 30000 nM (inactive)
11 | NC(=O)c1sc2nccc(Nc3ccccc3)c2c1N | 8970 nM
12 | COC(=O)c1[nH]c2c(c1C)C(=O)CC(c1ccccc1)C2 (stereo not given) | 13200 nM (inactive)
13 | CCCN1C=CC(=C2C(=O)c3ccccc3C2=O)C=C1 | 1040 nM
14 | CCn1c2ccccc2c2cc(Nc3cc(C)nc4ncnn34)ccc21 | 1450 nM
15 | COc1ccc(OCc2cccc(C(=O)O)c2)cc1 | 257 nM
16 | Cc1c(C(=O)OCCOC(C)C)[nH]c2c1C(=O)CC(c1ccco1)C2 (stereo not given) | 1670 nM
17 | O=C(NC1=NCCS1)C1COc2ccccc2O1 (stereo not given) | 2420 nM
18 | CCOC(=O)c1[nH]c2c(c1C)C(=O)CC(c1ccco1)C2 (stereo not given) | 316 nM
19 | C=C(C)COc1ccc(-c2[nH]ncc2-c2ccc(OC)c(OC)c2)c(O)c1 | 8250 nM
20 | CCOC(=O)c1[nH]c(C)c(C(=O)c2cc(F)ccc2F)c1C | > 9970 nM (inactive)
21 | O=C(NCc1cccs1)c1nc2c(nnn2Cc2ccccc2Cl)c(=O)[nH]1 | 2320 nM
22 | Oc1c(C(Nc2nc3ccccc3s2)c2ccco2)ccc2cccnc12 (stereo not given) | 1710 nM
23 | CCCOc1ccccc1C1CC(=O)Nc2cc3c(cc21)OCCO3 (stereo not given) | 25000 nM (inactive)
24 | Cc1ccc2nc(-c3ccccc3)cn2c1 | 1150 nM
25 | Cc1cccc(C)c1-n1nnnc1SCSc1nnnn1-c1c(C)cccc1C | 3410 nM
26 | Cc1cccc(N2CCN(C(=O)c3ccc(CS(=O)(=O)c4ccccc4C)o3)CC2C)c1 (stereo not given) | 7040 nM
27 | O=C(Nc1nc2ccccc2[nH]1)c1ccccc1F | 2280 nM

Row | Compound | IC50
28 | COC(=O)C1=C(CN2CCCc3ccccc32)NC(=O)NC1c1ccc(F)cc1 (stereo not given) | 700 nM
29 | COc1cc(C2C(C#N)=C(C)NC3=C2C(=O)c2ccccc23)cc(OC)c1OC (stereo not given) | 6610 nM
30 | COc1cccc(-c2nnc3n2N=C(C(C)(C)C)CS3)c1 | 3280 nM
31 | Clc1ccc(COn2nnc3ccccc32)c(Cl)c1 | > 30000 nM (inactive)
32 | Cc1ccc(C(=O)NCCn2cc(SCC(=O)Nc3cc(C)on3)c3ccccc32)cc1 | 5460 nM
33 | COc1ccccc1C(=O)N1CCN(c2cccc(Cl)c2)CC1 | 17900 nM (inactive)
34 | Cc1ccc(Nc2cc(C)nn2-c2nc(C)cc(=O)[nH]2)cc1 | 10600 nM (inactive)
35 | Cc1cc(C(=O)OCC(=O)NCc2ccco2)c(C)n1-c1ccccc1 | > 30000 nM (inactive)
36 | Cc1cccc2cc(CN(Cc3cccs3)C(c3nnnn3C3CCCC3)C(C)C)c(=O)[nH]c12 (stereo not given) | 8420 nM
37 | CNC(=O)CCc1nc(-c2ccc(C(C)(C)C)cc2)no1 | 17000 nM (inactive)
38 | O=C(O)c1cccc(COc2ccc(CO)cc2Cl)c1 | 252 nM
39 | CCN(CC)c1ccc2cc(-c3nc4ccccc4n3C)c(=O)oc2c1 | > 9970 nM (inactive)
40 | CCOc1ccccc1NC(=O)Cn1nnc(C(=O)NCc2ccco2)c1N | 1350 nM
41 | CCNC(=O)CCc1nc(-c2ccc(C(C)(C)C)cc2)no1 | 1610 nM
42 | CCOc1ccc(OCc2cccc(C(=O)O)c2)cc1 | 192 nM
43 | CC(C)c1nnc(NC(=O)c2c(O)c3cccc4c3n(c2=O)CCC4)s1 | > 30000 nM (inactive)
44 | O=C(NC1c2ccccc2-c2ccccc21)N1CCCCC1 | > 30000 nM (inactive)
45 | Cc1oc2cc3c(C(=O)OCCN(C)C)c(C)oc3cc2c1C(=O)OCCN(C)C | 438 nM
46 | c1ccc(-c2noc(-c3ccc4ccccc4c3)n2)nc1 | 1400 nM
47 | O=C(/C=C\Nc1ccc2c(c1)OCO2)c1ccccn1 | 3030 nM
48 | Cc1ccc(-c2nc(-c3ccccn3)no2)cc1 | 2060 nM
49 | CC(C)(C)c1ccc(-c2noc(CCC(N)=O)n2)cc1 | 300 nM
50 | O=C(O)[C@@H]1CCCC[C@@H]1C(=O)N1CCc2ccccc2C1CN1C(=O)c2ccccc2C1=O (stereo not given in full) | > 30000 nM (inactive)
51 | CCOC(=O)c1ccccc1NC(=O)Cn1c(-c2nonc2N)nc2ccccc21 | 11600 nM (inactive)
52 | COc1cc(OC)cc(-c2cc3nc(C)c(CCC(=O)O)c(C)n3n2)c1 | 1540 nM
53 | Cc1ccc(-c2cc3c(nn2)-c2ccccc2C3=O)cc1 | 3290 nM
54 | COc1ccc2cc(C(=O)NCc3ccco3)c(=Nc3ccc(C(=O)O)cc3)oc2c1 | 20900 nM (inactive)

Row | Compound | IC50
55 | COc1cccc(NC(=O)CSc2nnc(-c3cc(C)n(-c4ccccc4)c3C)o2)c1 | > 9970 nM (inactive)
56 | Cc1cccc(-n2ncc3c(N(C)C4CCCCC4)ncnc32)c1 | 6590 nM
57 | COc1cccc2c(C)c(C(=O)O)[nH]c12 | 4840 nM
58 | Cc1ccc(-c2cnc(NC(=O)CCC(=O)N3CCCCC3)n2C)cc1 | 953 nM
59 | CCCCn1c(SCc2c(C)noc2C)nc2cc(S(N)(=O)=O)ccc21 | 2600 nM
60 | O=C(c1ccc(Cl)cc1)N1CCCCC(Sc2nnc(-c3ccc4c(c3)OCO4)o2)C1=O (stereo not given) | 1240 nM
61 | CCN(CC)c1ccc(-c2nn3c(-c4ccccc4OC)nnc3s2)cc1 | 819 nM
62 | COc1cccc(Oc2cnc(N)nc2-c2ccc(OC)cc2O)c1 | 14600 nM (inactive)
63 | Cc1csc(NC(=O)c2sc3nc(-c4cccs4)ccc3c2N)n1 | 565 nM
64 | CCN(c1ccccc1)S(=O)(=O)c1ccc(Oc2ccc(-n3ccnc3)cc2)nc1 | 738 nM
65 | CCNc1ccc(C(=O)OCC)cc1NC(=O)c1cccc(N(C)C)c1 | > 30000 nM (inactive)
66 | CSc1nnc2c3ccccc3n(CCc3ccccc3)c2n1 | 10300 nM (inactive)
67 | Cc1ccc(-c2nsc3c(N4CCC(C(N)=O)CC4)ncnc23)cc1 | > 30000 nM (inactive)
68 | CCCOc1c(OC)cccc1C1CC(=O)Nc2cc(OC)c(OC)c(OC)c21 (stereo not given) | > 30000 nM (inactive)
69 | CCN(CC)c1ccc2cc(NC(=O)CCC(=O)O)c(=O)oc2c1 | > 9970 nM (inactive)
70 | COc1ccc(C2=Nn3c(nnc3-c3ccccc3OC)SC2)cc1OC | 1420 nM
71 | Cc1nn(-c2ccccc2)c(Cl)c1C1C(C#N)=C(N)Oc2n[nH]c(C)c21 (stereo not given) | 1860 nM
72 | CCCN(CCC)S(=O)(=O)c1ccc(C(=O)Nc2nnc(-c3cccc(OC)c3)o2)cc1 | 4510 nM
73 | Cn1c(=O)n(C)c2cc(C(=O)Nc3ccc4c(c3)OCO4)ccc21 | 2250 nM
74 | O=C1NC(Nc2nc3ccccc3s2)(C(F)(F)F)C(=O)N1C1CCCCC1 (stereo not given) | > 30000 nM (inactive)
75 | COc1cccc(C=Nc2cccnc2)c1O | > 30000 nM (inactive)
76 | CC(=O)c1ccc(-c2nc3c4ccccc4ccn3c2C(C)=O)o1 | 730 nM
77 | Cc1cc(-n2c(C)cc(C(=O)CSc3ncnc4ccccc34)c2C)no1 | > 30000 nM (inactive)
78 | CCOc1ccc(OCc2cccc(C(=O)N3CCOCC3)c2)cc1 | 2570 nM
79 | Cc1cc(C(=O)CN2C(=O)c3ccccc3S2(=O)=O)c(C)n1CC1CCCO1 (stereo not given) | 310 nM
80 | COc1ccc(C(=O)NC(=O)Nc2cc(C)ccn2)cc1 | 3900 nM
81 | CC1=CC(C)(C)Nc2ccc(OC(=O)c3cccnc3)cc21 | > 9970 nM (inactive)

Row | Compound | IC50
82 | CCN1C=CC(=C2C(=O)c3ccccc3C2=O)C=C1 | 4750 nM
83 | Cn1cc(/C=N/n2cnc3scc(-c4ccc(Cl)cc4)c3c2=O)c2ccccc21 | > 30000 nM (inactive)
84 | Cc1cc(C)nc(N2CCC(C(=O)NCCc3ccc(F)cc3)CC2)n1 | > 30000 nM (inactive)
85 | COc1cc(C2C(C#N)=C(N)Oc3cc(N(C)C)ccc32)cc2c1OCO2 (stereo not given) | 766 nM
86 | COc1ccc2c(c1)sc1nc(-c3ccccc3)cn12 | 1870 nM
87 | CC1=CC(C)(C)Nc2ccc(OC(=O)CN3C(=O)CCC3=O)cc21 | 6840 nM
88 | CCOc1ccc(-c2nc(CSCC(=O)NCc3ccco3)c(C)o2)cc1 | 1830 nM
89 | N#Cc1c(NC(=O)CSc2ncn[nH]2)sc2c1CCCCC2 | 6570 nM
90 | Cc1oc(-c2ccccc2Cl)nc1CSCC(=O)N1CCCC1 | 1160 nM
91 | COc1cc(NC(=O)c2cccc3c2C(=O)N(Cc2cccnc2)C3)cc(OC)c1OC | 1180 nM
92 | c1ccc(-c2noc(-c3ccc4c(c3)OCO4)n2)nc1 | > 30000 nM (inactive)
93 | CN(C)c1ccc2c(c1)OC(N)=C(C#N)C2c1cccc(F)c1 (stereo not given) | 1650 nM
94 | COCCn1c(C)cc(C(=O)CSc2nnc(C)s2)c1C | 4100 nM
95 | COc1cc(CC(NC(C)=O)C(=O)NC2CCN(c3nc(C)cc(C)c3C#N)CC2)cc(OC)c1 (stereo not given) | 1640 nM
96 | O=c1c2ccccc2cnn1-c1nc2ccccc2s1 | 3300 nM
97 | COc1cc(C(=O)N2CCN(c3cc(Cl)ccc3Cl)CC2)cc(OC)c1OC | > 30000 nM (inactive)
98 | CCOC(=O)C(C(C)=O)c1c(Br)c(O)c(O)c2c(C(=O)c3ccc(C)cc3)coc12 (stereo not given) | 8330 nM
99 | Cc1nn(Cc2ccccc2Cl)c(C)c1C(=O)Nc1nnc(C2CC2)s1 | 2500 nM
100 | O=C(CN1C(=O)c2ccccc2S1(=O)=O)N1CCc2ccccc21 | 2260 nM
101 | CCOc1ccc(-c2cc(C(=O)O)c3ccccc3n2)c(OCC)c1 | 4600 nM
102 | CC1CCN(c2nc3ccc(C(=O)O)cc3s2)CC1 | 203 nM
103 | O=C(O)c1cccc(COc2ccccc2Cl)c1 | 615 nM
104 | Cc1nn(Cc2c(Cl)cccc2Cl)c(C)c1NC(=O)c1cc(C(C)C)on1 | > 9970 nM (inactive)
105 | O=C(Cc1cccs1)Nc1nc2c(s1)CCCC2 | 2650 nM
